One assay concerns HeLa cells. Kind of assay: Suppressive effect on cytotoxicity of Cu(II) ions (Cell Counting Kit-8). In kind it is cell-based. To be noted: 100 μM Cu(II); single oxidized agent added four hours later; read 24 hours after CuCl2 (FIG. 15). Here is the method:
HeLa cells were seeded in a 96-well plate at 5,000 cells/well and cultured at 37° C. in a 5% CO2 environment for 24 hours. Subsequently, a CuCl2 aqueous solution was added thereto to obtain 100 μM Cu(II). Four hours later, a mixed solution (10:1) of a certain amount of the compound (A-1-1-1) and the compound (B-1-1-1), or a mixed solution (10:1) of oxidized glutathione (GSSG) and reduced glutathione (GSH) was added. 24 hours after the addition of CuCl2, a Cell Counting Kit-8 solution was added thereto. Two hours later, an absorbance at 450 nm was measured to estimate the cell viability.
HeLa cells were seeded in a 96-well plate at 5,000 cells/well and cultured at 37° C. in a 5% CO2 environment for 24 hours. Subsequently, a CuCl2 aqueous solution was added thereto to obtain 100 μM Cu(II). Four hours later, a certain amount of the compound (B-1-1-1) solution or oxidized glutathione (GSSG) solution was added thereto. 24 hours after the addition of CuCl2, a Cell Counting Kit-8 solution was added thereto. Two hours later, the absorbance at 450 nm was measured to estimate the cell viability.

Assay [1] concerns the target T1, reduced and denatured Bovine Pancreatic Trypsin Inhibitor (BPTI) (Bos taurus, UniProt P00974).
T1 construct: purchased Pro-Spec-Tany TechnoGene Ltd. (Rehovot, Israel)
Kind of assay: Protein folding test of reduced and denatured BPTI (reverse-phase HPLC). The class given is biochemical. To be noted: for formation proportion of native structural BPTI in the presence of Zn(II) ions: 90 μM Zn(II) (ZnSO4), 90 μM (B-1-2-1) or 900 μM GSSG alone, 1 hour (FIG. 25). Here is the method:
Bovine Pancreatic Trypsin Inhibitor (BPTI) having three disulfide bonds in the molecule was used as a model protein for analyzing a folding process.
BPTI (10 mg) was dissolved in 0.1 M Tris-HCl (pH: 8.0, 1.0 mL) containing 30 mM 1,4-dithiothreitol and 8 M urea, incubated at 50° C. for 3 hours, and purified by reverse-phase HPLC. HPLC purification was carried out using a PU-4180 pump and a UV-4075 detector manufactured by JASCO Corporation (Tokyo, Japan), and an InertSustain C18 column (4.6 mm×250 mm) manufactured by GL Sciences Inc. (Tokyo, Japan) at a flow rate of 1.0 mL·min^−1. The collected fractions were freeze-dried, and the obtained powder was stored at −30° C.
For analysis of the folding process by reverse-phase HPLC, Primaide HPLC system manufactured by Hitachi High-Tech Corporation (Tokyo, Japan) and TSKgel Protein C4-300 column (§ 4.6×150 mm) manufactured by Tosoh Corporation (Tokyo, Japan) were used. […]
In the presence of 200 μM of the compound (B-1-1-1) and 1.0 mM of the compound (A-1-1-1), reduced and denatured BPTI (30 μM) was dissolved in a Tris-HCl buffer (50 mM Tris-HCl, 300 mM NaCl, pH: 7.5) and incubated at 30° C. Reaction solutions (200 μL) collected at 0 minutes, 1 minute, 5 minutes, 10 minutes, 30 minutes, and 60 minutes after the start of the reaction were mixed with an equivalent amount of 1 M hydrochloric acid, and analyzed by reverse-phase HPLC. Tracing was performed at a flow rate of 1.0 mL·min^−1 and a wavelength of 229 nm, and a linear gradient was applied to the elution solvent ratio during measurement (solvent A: water containing 0.05% TFA, solvent B: acetonitrile containing 0.05% TFA; the amount of solvent A: 95% at 0 minutes, 80% at 15 minutes, 65% at 45 minutes). […]
In the presence of 200 μM oxidized glutathione (GSSG) and 1.0 mM reduced glutathione (GSH), or in the presence of 200 μM of the compound (B-1-1-1) and 1.0 mM of the compound (A-1-1-1), ZnSO4 and reduced and denatured BPTI (30 μM) were dissolved in a Tris-HCl buffer (50 mM Tris-HCl, 300 mM NaCl, pH: 7.5) and incubated at 30° C. The reaction solution (200 μL) 1 hour after the start of the reaction was mixed with an equivalent amount of 1 M hydrochloric acid and analyzed by reverse-phase HPLC. Tracing was performed at a flow rate of 1.0 mL·min^−1 and a wavelength of 229 nm, and a linear gradient was applied to the elution solvent ratio during measurement (solvent A: water containing 0.05% TFA, solvent B: acetonitrile containing 0.05% TFA; the amount of solvent A: 95% at 0 minutes, 80% at 15 minutes, 65% at 45 minutes).
In the presence of 90 μM of the compound (B-1-2-1) and 900 μM of the compound (A-1-2-1), or in the presence of 90 μM of oxidized glutathione […] and 900 μM of reduced glutathione […], reduced and denatured BPTI (30 μM) was dissolved in a Tris-HCl buffer (50 mM Tris-HCl, 300 mM NaCl, pH: 7.5) and incubated at 30° C. The reaction solution (200 μL) 1 hour after the start of the reaction was mixed with an equivalent amount of 1 M hydrochloric acid and analyzed by reverse-phase HPLC. Tracing was performed at a flow rate of 1.0 mL·min^−1 and a wavelength of 229 nm, and a linear gradient was applied to the elution solvent ratio during measurement (solvent A: water containing 0.05% TFA, solvent B: acetonitrile containing 0.05% TFA; the amount of solvent A: 95% at 0 minutes, 80% at 15 minutes, 65% at 45 minutes).
In the presence of 90 μM of the compound (B-1-2-1), 90 μM of Zn(II) ion (ZnSO4) and reduced and denatured BPTI (30 μM) were dissolved in a Tris-HCl buffer (50 mM Tris-HCl, 300 mM NaCl, pH: 7.5) and incubated at 30° C. The reaction solution (200 μL) 1 hour after the start of the reaction was mixed with an equivalent amount of 1 M hydrochloric acid and analyzed by reverse-phase HPLC. […]

For the compound “oxidized glutathione [GSSG, reference compound]”, the “improvement of cell viability of HeLa cells exposed to Cu(II) ions” value with HeLa cells was “had little effect on improving the cell viability of HeLa cells”. In addition, the “formation proportion of native structural BPTI in the presence of Zn(II) ions” value in assay [1] is “proteins aggregated and folding hardly proceeded”.

Regarding `C1CNCCNCCCN(CCSSCCN2CCCNCCNCCCNCC2)CCNC1` [compound (B-1-1-1)], the “improvement of cell viability of HeLa cells exposed to Cu(II) ions” value in the assay on HeLa cells is “greatly improved the viability of HeLa cells”.

Consider `C1CNCCN(CCSSCCN2CCNCCNCC2)CCN1` [compound (B-1-2-1)], for which the “formation of native structural BPTI in the absence of Zn(II) ions” value in assay [1] (90 μM (B-1-2-1) alone, Zn(II) 0 μM, 1 hour (FIG. 23)) is recorded as “native structural BPTI was formed even at a Zn(II) ion concentration of 0 μM”. Besides, the “formation proportion of native structural BPTI with increasing Zn(II) ion concentration” value in assay [1] (90 μM (B-1-2-1) alone, ZnSO4, 1 hour, 30° C. (FIG. 23)) is given as “formation proportion of native structural BPTI increased as the Zn(II) ion concentration increased”. For the same compound, in assay [1], the “formation proportion of native structural BPTI in the presence of Zn(II) ions” value was “formation proportion of native structural BPTI was larger in the presence of Zn(II) ions than in the absence of Zn(II) ions”.

In the case of `C1CN2CCSSCCN(CCN1)CC2` [compound (B-2-1-1)], the “protein folding promotion effect of a catalytic amount” value in assay [1] (6 μM (B-2-1-1), NiCl2 0 μM, BPTI 30 μM (FIG. 31)) is “had the protein folding promotion effect”. Besides, the “protein folding promotion effect of a catalytic amount in the presence of Ni(II) ions” value in assay [1] (6 μM (B-2-1-1), NiCl2 1 μM, BPTI 30 μM (FIG. 32)) is “significantly improved as compared with the absence of Ni(II) ions”. Besides, in assay [1] (30 μM (B-2-1-1), CuCl2 5 μM, BPTI 30 μM (FIG. 33)), the “protein folding promotion effect of a catalytic amount in the presence of Cu(II) ions” value is listed as “significantly improved as compared with the absence of Cu(II) ions”. Besides, the “formation proportion of native structural BPTI with increasing Cu(II) ion concentration” value in assay [1] (90 μM (B-2-1-1), CuCl2, 1 hour (FIG. 29)) is reported as “formation proportion of native structural BPTI increased as the Cu(II) ion concentration increased”. Also, the “formation proportion of native structural BPTI with increasing Ni(II) ion concentration” value in assay [1] (90 μM (B-2-1-1), NiCl2, 1 hour (FIG. 30)) is listed as “formation proportion of native structural BPTI increased as the Ni(II) ion concentration increased”. Moreover, the “folding versus theoretical yield of a stoichiometric reaction” value in assay [1] (catalytic amount of (B-2-1-1), presence of Ni(II) ions or Cu(II) ions) is given as “enhancement of folding that greatly exceeded the theoretical yield expected for a stoichiometric reaction”. The “protein folding promotion effect” value in assay [1] (no metal ion, 90 μM agent, 1 hour, 30° C. (FIG. 28)) is given as “protein folding promotion effect comparable to that of GSSG”.
